From ChEMBL document CHEMBL4828709, “Discovery of 2,4-pyrimidinediamine derivatives as potent dual inhibitors of ALK and HDAC” (Eur J Med Chem, 2021)
pIC50: −log10 of the molar value. The source made the active and inactive calls. The rule behind the calls is not given here.

How the values were obtained:
Homo sapiens [1] = organism: Homo sapiens; test: Inhibition of human Aurora kinase at 1 uM
SH-SY5Y [2] = test: Induction of apoptosis in human SH-SY5Y cells assessed as necrotic cells at 1 uM measured after 24 hrs by Annexin V-FITC/PI staining based flowcytometry (reference value: 7.81%); format: functional
MDA-MB-231 [3] = test: Cell cycle arrest in human MDA-MB-231 cells assessed as accumulation of cells at G2 phase at 4 uM measured after 24 hrs by PI staining based flowcytometry method (reference value: 23.89%); format: functional
[4] = Half life in Sprague-Dawley rat at 1 mg/kg, iv measured for 12 hrs by LC-MS/MS analysis; format: ADME, organism-based; details: in vivo
NCI-H2228 = test: Potency index, ratio of ceritinib IC50 to test compound IC50 for human NCI-H2228 cells harboring EML4/ALK […] assessed as inhibition of cell proliferation measured after 72 hrs by CCK8 assay; format: functional
SH-SY5Y [5] = test: Induction of apoptosis in human SH-SY5Y cells assessed as necrotic cells at 4 uM measured after 24 hrs by Annexin V-FITC/PI staining based flowcytometry (reference value: 7.81%); format: functional
Histone deacetylase 1 [6] = target: T1, Histone deacetylase 1 (Homo sapiens, UniProt Q13547); details: Sf9, dose 10.0 nM, time 15.0 min
MDA-MB-231 [7] = test: Cell cycle arrest in human MDA-MB-231 cells assessed as accumulation of cells at S phase at 4 uM measured after 24 hrs by PI staining based flowcytometry method (reference value: 20.81%); format: functional
[8] = target: T2, Protein deacetylase HDAC6 (Homo sapiens, UniProt Q9UBN7)
T2 sequence (Q9UBN7 whole entry): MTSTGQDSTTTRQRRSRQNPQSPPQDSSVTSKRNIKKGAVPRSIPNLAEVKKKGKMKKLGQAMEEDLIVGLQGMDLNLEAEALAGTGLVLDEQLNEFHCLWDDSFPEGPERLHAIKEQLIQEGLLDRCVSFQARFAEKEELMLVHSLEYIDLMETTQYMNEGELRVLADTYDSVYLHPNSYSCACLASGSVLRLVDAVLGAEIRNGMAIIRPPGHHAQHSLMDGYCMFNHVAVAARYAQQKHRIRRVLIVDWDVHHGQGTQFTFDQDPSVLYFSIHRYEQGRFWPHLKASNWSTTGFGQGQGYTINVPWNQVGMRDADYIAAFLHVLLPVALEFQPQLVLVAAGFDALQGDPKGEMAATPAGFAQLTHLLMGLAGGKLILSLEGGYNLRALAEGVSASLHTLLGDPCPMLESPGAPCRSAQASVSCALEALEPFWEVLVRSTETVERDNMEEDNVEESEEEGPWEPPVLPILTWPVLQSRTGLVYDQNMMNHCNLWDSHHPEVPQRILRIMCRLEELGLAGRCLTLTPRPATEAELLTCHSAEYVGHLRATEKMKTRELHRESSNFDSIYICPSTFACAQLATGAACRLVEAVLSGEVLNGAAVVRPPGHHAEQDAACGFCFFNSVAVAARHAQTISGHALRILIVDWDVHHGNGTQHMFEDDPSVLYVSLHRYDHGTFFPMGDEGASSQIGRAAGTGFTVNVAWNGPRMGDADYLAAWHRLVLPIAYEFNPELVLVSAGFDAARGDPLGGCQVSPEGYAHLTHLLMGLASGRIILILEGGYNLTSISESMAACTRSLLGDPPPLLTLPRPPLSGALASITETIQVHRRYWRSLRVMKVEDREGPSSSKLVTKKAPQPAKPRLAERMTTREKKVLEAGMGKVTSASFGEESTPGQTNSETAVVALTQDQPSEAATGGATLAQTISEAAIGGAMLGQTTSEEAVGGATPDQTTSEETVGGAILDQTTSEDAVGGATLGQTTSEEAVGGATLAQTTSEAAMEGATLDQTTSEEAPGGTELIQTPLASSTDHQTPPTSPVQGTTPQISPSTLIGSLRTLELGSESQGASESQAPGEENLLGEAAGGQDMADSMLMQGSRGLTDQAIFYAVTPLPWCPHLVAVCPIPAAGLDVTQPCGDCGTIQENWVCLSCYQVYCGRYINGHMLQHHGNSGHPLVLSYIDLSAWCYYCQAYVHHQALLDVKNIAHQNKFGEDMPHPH
Description: Inhibition of HDAC6 (unknown origin)

SH-SY5Y [9] = test: Induction of apoptosis in human SH-SY5Y cells assessed as necrotic cells at 2 uM measured after 24 hrs by Annexin V-FITC/PI staining based flowcytometry (reference value: 7.81%); format: functional
SH-SY5Y [10] = test: Antimigratory activity against human SH-SY5Y cells assessed as wound closure at 0.4 uM measured after 48 hrs by cell scratch assay (reference value: 15.1%); format: functional
[11] = system: ALK tyrosine kinase receptor (Homo sapiens), Q9UM73 [G1202R]; test: Potency index, ratio of repotrectinib IC50 to test compound IC50 for inhibition of ALK G1202R mutant (unknown origin)
HepG2 = test: cells; format: functional, cell-based; details: Homo sapiens, HepG2, 72 h
Description: Antiproliferative activity against human HepG2 cells assessed as inhibition of cell proliferation measured after 72 hrs by CCK8 assay

[12] = target: T3, ALK tyrosine kinase receptor (Homo sapiens, UniProt Q9UM73); test: Inhibition of ALK in human MDA-MB-231 cells assessed as inhibition of ERK phosphorylation at Thr202/Tyr204 residue measured after 24 hrs by Western blot assay; format: cell-based; details: dose 1-4 µM
Homo sapiens [13] = organism: Homo sapiens; test: Inhibition of human FLT at 1 uM
MDA-MB-231 [14] = test: Induction of apoptosis in human MDA-MB-231 cells assessed as viable cells at 4 uM measured after 24 hrs by Annexin V-FITC/PI staining based flowcytometry (reference value: 93.14%); format: functional; details: read-out: Activity
[15] = MRT (0 to infinity) in Sprague-Dawley rat at 1 mg/kg, iv measured for 12 hrs by LC-MS/MS analysis; format: ADME, organism-based; details: in vivo
Histone deacetylase 1 [16] = target: T1, Histone deacetylase 1; details: Sf9, dose 100.0 nM, time 15.0 min
SH-SY5Y [17] = test: cells; format: functional, cell-based; details: Homo sapiens, 72 h
Description: Antiproliferative activity against human SH-SY5Y cells harboring ALK F1174L mutant assessed as inhibition of cell proliferation measured after 72 hrs by CCK8 assay

MDA-MB-231 [18] = test: Cell cycle arrest in human MDA-MB-231 cells assessed as accumulation of cells at G1 phase at 4 uM measured after 24 hrs by PI staining based flowcytometry method (reference value: 55.32%); format: functional
[19] = target: T3, ALK tyrosine kinase receptor; test: Inhibition of human ALK at 1 uM
MDA-MB-231 [20] = test: Cell cycle arrest in human MDA-MB-231 cells assessed as accumulation of cells at S phase at 1 uM measured after 24 hrs by PI staining based flowcytometry method (reference value: 20.81%); format: functional
SH-SY5Y [21] = test: Cell cycle arrest in human SH-SY5Y cells assessed as accumulation of cells at S phase at 4 uM measured after 24 hrs by PI staining based flowcytometry method (reference value: 27.69%); format: functional
[22] = target: Fibroblast growth factor receptor (Homo sapiens) (UniProt P22607+P11362+P22455+P21802); test: Inhibition of human FGFR at 1 uM; format: protein assay
cells = format: functional, cell-based; details: Homo sapiens, SKNBE2, 72 h
Description: Antiproliferative activity against human SKNBE2 cells harboring wild type ALK assessed as inhibition of cell proliferation measured after 72 hrs by CCK8 assay

T3 sequence (Q9UM73 19-1620 limits assumed): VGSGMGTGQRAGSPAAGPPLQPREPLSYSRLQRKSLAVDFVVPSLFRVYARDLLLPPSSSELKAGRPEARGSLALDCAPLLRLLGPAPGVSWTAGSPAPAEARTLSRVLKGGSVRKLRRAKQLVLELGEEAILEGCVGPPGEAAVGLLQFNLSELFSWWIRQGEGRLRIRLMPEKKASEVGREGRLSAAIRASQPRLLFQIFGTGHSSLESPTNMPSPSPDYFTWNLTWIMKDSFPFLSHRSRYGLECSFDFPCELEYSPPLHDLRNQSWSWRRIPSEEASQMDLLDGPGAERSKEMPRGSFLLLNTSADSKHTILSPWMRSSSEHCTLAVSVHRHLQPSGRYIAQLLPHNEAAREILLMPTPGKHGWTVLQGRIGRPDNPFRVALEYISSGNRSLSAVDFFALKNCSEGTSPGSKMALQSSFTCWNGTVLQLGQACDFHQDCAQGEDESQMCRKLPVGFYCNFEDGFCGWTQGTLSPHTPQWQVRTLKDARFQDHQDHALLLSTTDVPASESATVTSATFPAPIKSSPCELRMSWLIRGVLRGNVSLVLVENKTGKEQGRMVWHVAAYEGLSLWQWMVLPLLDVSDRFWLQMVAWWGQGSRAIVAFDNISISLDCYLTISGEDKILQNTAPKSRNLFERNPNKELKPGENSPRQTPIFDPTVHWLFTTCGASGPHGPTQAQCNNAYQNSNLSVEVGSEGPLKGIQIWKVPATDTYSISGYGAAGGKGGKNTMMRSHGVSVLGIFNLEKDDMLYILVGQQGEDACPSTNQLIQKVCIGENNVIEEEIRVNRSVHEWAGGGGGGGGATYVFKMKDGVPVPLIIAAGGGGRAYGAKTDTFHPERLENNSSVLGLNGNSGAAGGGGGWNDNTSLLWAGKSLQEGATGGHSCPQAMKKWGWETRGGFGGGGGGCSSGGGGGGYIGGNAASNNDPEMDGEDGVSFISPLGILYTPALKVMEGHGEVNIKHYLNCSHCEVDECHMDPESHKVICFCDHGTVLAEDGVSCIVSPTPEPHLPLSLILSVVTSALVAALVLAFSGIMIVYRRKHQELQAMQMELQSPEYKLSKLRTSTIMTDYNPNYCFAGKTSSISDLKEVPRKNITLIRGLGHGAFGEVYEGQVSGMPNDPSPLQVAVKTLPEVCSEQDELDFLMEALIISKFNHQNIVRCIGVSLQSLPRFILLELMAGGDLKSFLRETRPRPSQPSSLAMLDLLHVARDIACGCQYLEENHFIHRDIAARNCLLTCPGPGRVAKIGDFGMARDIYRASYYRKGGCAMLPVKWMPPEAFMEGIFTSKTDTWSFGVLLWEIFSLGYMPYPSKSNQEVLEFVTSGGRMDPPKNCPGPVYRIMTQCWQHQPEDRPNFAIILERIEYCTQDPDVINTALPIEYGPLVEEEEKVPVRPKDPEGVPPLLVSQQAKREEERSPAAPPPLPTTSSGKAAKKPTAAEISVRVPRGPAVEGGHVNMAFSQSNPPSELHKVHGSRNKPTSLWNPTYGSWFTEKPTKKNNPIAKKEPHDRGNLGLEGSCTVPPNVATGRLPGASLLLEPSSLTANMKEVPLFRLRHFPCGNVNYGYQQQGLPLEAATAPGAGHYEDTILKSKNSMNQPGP
T1 sequence (Q13547 whole entry): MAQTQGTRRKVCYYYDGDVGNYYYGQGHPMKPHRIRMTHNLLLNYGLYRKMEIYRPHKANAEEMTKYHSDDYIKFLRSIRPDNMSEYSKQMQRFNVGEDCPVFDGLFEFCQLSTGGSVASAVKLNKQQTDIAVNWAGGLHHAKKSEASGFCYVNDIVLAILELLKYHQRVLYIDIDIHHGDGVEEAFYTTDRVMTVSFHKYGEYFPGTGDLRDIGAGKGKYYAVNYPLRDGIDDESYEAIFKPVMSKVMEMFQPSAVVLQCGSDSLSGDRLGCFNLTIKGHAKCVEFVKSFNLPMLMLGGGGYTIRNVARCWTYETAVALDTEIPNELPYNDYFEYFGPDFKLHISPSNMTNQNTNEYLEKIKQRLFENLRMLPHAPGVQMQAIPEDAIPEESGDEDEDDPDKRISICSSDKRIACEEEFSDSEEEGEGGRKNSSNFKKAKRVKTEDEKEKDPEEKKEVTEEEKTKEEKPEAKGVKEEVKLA
ALK tyrosine kinase receptor (Homo sapiens), Q9UM73 [G1202R], sequence (Q9UM73 whole entry G1202R): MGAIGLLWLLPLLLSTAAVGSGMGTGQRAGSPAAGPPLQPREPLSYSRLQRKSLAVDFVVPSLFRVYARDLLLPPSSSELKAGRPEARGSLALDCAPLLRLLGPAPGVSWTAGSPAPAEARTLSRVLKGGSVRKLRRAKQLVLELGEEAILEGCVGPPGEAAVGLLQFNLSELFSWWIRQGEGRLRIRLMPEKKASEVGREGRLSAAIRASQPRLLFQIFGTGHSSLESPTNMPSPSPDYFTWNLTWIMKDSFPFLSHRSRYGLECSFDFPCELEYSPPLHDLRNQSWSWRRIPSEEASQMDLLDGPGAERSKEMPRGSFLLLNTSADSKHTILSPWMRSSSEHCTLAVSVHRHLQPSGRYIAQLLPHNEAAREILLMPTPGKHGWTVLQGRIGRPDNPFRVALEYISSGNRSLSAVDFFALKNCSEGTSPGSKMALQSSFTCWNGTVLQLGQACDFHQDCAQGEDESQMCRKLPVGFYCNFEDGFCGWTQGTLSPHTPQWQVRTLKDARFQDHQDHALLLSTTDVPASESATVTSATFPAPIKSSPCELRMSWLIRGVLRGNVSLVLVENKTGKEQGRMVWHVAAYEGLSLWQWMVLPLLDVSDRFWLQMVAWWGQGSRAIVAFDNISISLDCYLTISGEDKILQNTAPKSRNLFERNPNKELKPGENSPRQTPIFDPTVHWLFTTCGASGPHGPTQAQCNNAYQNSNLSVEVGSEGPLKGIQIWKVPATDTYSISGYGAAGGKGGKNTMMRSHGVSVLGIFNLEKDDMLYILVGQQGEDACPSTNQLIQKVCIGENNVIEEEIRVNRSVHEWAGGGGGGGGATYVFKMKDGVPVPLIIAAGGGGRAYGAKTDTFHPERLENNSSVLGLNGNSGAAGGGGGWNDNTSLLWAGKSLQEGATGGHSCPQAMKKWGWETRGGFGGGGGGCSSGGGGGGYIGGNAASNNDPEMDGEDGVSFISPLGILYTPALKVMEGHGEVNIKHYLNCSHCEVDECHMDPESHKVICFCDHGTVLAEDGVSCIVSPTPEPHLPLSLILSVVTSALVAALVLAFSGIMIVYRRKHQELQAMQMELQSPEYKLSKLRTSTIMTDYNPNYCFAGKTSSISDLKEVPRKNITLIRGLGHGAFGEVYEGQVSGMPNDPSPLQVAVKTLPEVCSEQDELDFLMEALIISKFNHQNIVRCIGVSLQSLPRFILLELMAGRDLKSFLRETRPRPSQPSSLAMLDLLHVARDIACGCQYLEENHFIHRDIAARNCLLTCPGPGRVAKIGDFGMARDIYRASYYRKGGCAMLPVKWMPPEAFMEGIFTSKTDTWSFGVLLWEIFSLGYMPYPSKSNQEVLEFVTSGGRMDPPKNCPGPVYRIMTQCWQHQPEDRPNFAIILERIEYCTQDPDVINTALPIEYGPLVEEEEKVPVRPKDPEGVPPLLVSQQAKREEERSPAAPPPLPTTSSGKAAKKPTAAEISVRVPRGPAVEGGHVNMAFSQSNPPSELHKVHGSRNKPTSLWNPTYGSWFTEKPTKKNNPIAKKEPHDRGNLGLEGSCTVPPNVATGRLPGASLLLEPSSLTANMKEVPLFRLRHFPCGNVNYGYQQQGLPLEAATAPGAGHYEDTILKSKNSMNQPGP

**Q.** Which inhibition (Homo sapiens [1]) does the source give for `CC(C)S(=O)(=O)c1ccccc1Nc1nc(Nc2ccc(NC(=O)CCCCCCC(=O)NO)cc2)ncc1Cl` here?
**A.** 95%

**Q.** What about the Activity (SH-SY5Y [2]) of the same compound?
**A.** 10.08%

**Q.** And the Activity (MDA-MB-231 [3])?
**A.** 50.99%

**Q.** What about the half-life [4] of the same compound?
**A.** 25.2 min

**Q.** And the “Ratio IC50” value (NCI-H2228)?
**A.** 3

**Q.** And the Activity (SH-SY5Y [5])?
**A.** 12.95%

**Q.** What about the inhibition (Histone deacetylase 1 [6]) of the same compound?
**A.** 54%

**Q.** What about the Activity (MDA-MB-231 [7]) of the same compound?
**A.** 14.37%

**Q.** And the pIC50 [8]?
**A.** 8.36

**Q.** And the Activity (SH-SY5Y [9])?
**A.** 10.51%

**Q.** And the Activity (SH-SY5Y [10])?
**A.** 2.8%

**Q.** And the Ratio IC50 [11]?
**A.** 10

**Q.** And the pIC50 (HepG2)?
**A.** 6.19

**Q.** And the inhibition [12]?
**A.** Dose-Dependent Effect

**Q.** And the inhibition (Homo sapiens [13])?
**A.** Active

**Q.** And the viability at 4 µM (MDA-MB-231 [14])?
**A.** 76.9%

**Q.** What about the MRT [15] of the same compound?
**A.** 7.8 min

**Q.** What about the inhibition (Histone deacetylase 1 [16]) of the same compound?
**A.** 87%

**Q.** And the pIC50 (SH-SY5Y [17])?
**A.** 6.96

**Q.** And the Activity (MDA-MB-231 [18])?
**A.** 34.64%

**Q.** What about the inhibition [19] of the same compound?
**A.** Active

**Q.** And the Activity (MDA-MB-231 [20])?
**A.** 32.42%

**Q.** What about the Activity (SH-SY5Y [21]) of the same compound?
**A.** 7.55%

**Q.** And the inhibition [22]?
**A.** 95%

**Q.** And the pIC50 (cells)?
**A.** 7.30
